Laboratory results from US4415574A, “Soluble N2 substituted derivatives of 2,4-diamino 5-benzyl pyrimidine, process for their preparation and medicaments containing them” (S. A. Panmedica, priority 1981, dated 1983).

Key:
Type in all cases: cell-based
[1] = system: COLI; assay: Inhibiting minimum concentration (I.M.C.), activity relative to trimethoprime, MULLER HINTON COLI MEDIUM 4; settings: for % activity with respect to the base: ratio of I.M.C. to trimethoprime; for % activity to the base corrected by molecular weight: ratio to trimethoprime
Method: (§1) The antibacterial activity of the derivatives according to the invention were tested in vitro by determining the inhibiting minimum concentrations (I.M.C.) on different germs.

[2] = system: COLI; assay: Inhibiting minimum concentration (I.M.C.), activity relative to trimethoprime, OXOIDE COLI MEDIUM 4; settings: for % activity with respect to the base: ratio of I.M.C. to trimethoprime; for % activity with respect to the base corrected by molecular weight: ratio to trimethoprime
Method: as §1

[3] = system: BACIL PUMILUS; assay: Inhibiting minimum concentration (I.M.C.), activity relative to trimethoprime, MULLER HINTON BACIL PUMILUS MEDIUM; settings: for % activity with respect to the base: ratio of I.M.C. to trimethoprime; for % activity with respect to the base corrected by molecular weight: ratio to trimethoprime
Method: as §1

SMILES	% activity with respect to the base [1] [%]	% activity to the base corrected by molecular weight [1] [%]	% activity with respect to the base [2] [%]	% activity with respect to the base corrected by molecular weight [2] [%]	% activity with respect to the base [3] [%]	% activity with respect to the base corrected by molecular weight [3] [%]
COc1cc(Cc2cnc(NC(c3cccc(Cl)c3)S(=O)(=O)O)nc2N)cc(OC)c1OC (centres unmarked) [Example 10, N2 (3-Chloro Phenyl) Methane Sulfonic Acid of 2,4-Diamino 5-(3,4,5-Trimethoxy Benzyl) Pyrimidine]	11.6	20	14.1	25	10.4	18
COc1cc(Cc2cnc(NC(c3ccc(Cl)cc3)S(=O)(=O)O)nc2N)cc(OC)c1OC (centres unmarked) [Example 11, N2 (4-Chloro Phenyl) Methane Sulfonic Acid of 2,4-Diamino 5-(3,4,5-Trimethoxy Benzyl) Pyrimidine]	17.6	31	25.6	45	23	41
COc1cc(Cc2cnc(NC(c3ccc([N+](=O)[O-])cc3)S(=O)(=O)O)nc2N)cc(OC)c1OC (centres unmarked) [Example 12, N2 (4-Nitro Phenyl) Methane Sulfonic Acid of 2,4-Diamino 5-(3,4,5-Trimethoxy Benzyl) Pyrimidine]	18.1	32	11.7	21	11.9	22
COc1cc(Cc2cnc(NC(c3cccc([N+](=O)[O-])c3)S(=O)(=O)O)nc2N)cc(OC)c1OC (centres unmarked) [Example 13, N2 (3-Nitro Phenyl) Methane Sulfonic Acid of 2,4-Diamino 5-(3,4,5-Trimethoxy Benzyl) Pyrimidine]	17.2	31	32.5	59	23.2	42
COc1cc(Cc2cnc(NC(c3ccccc3[N+](=O)[O-])S(=O)(=O)O)nc2N)cc(OC)c1OC (centres unmarked) [Example 14, N2 (2-Nitro Phenyl) Methane Sulfonic Acid of 2,4-Diamino 5-(3,4,5-Trimethoxy Benzyl) Pyrimidine]	13.9	25	10.6	19	11.0	20
COc1cccc(C(Nc2ncc(Cc3cc(OC)c(OC)c(OC)c3)c(N)n2)S(=O)(=O)O)c1 (centres unmarked) [Example 16, N2 (3-Methoxy Phenyl) Methane Sulfonic Acid 2,4-Diamino 5-(3,4,5-Trimethoxy Benzyl) Pyrimidine]	16.8	29	13.2	23	10.7	19
COc1cc(Cc2cnc(NC(c3cc(OC)c(OC)c(OC)c3)S(=O)(=O)O)nc2N)cc(OC)c1OC (centres unmarked) [Example 17, N2 (3,4,5-Trimethoxy Phenyl) Methane Sulfonic Acid 2,4-Diamino 5-(3,4,5-Trimethoxy Benzyl) Pyrimidine]	24.3	48	34.8	68	42.7	84
COc1cc(Cc2cnc(NC(c3cccs3)S(=O)(=O)O)nc2N)cc(OC)c1OC (centres unmarked) [Example 20, N2 (2-Thienyl) Methane Sulfonic Acid of 2,4-Diamino 5-(3,4,5-Trimethoxy Benzyl) Pyrimidine]	73.5	123	62.6	105	83.4	140
COc1cc(C(Nc2ncc(Cc3cc(OC)c(OC)c(OC)c3)c(N)n2)S(=O)(=O)O)ccc1O (centres unmarked) [Example 21, N2 (4-Hydroxy 3-Methoxy) Phenyl Methane Sulfonic Acid of 2,4-Diamino 5-(3,4,5-Trimethoxy Benzyl) Pyrimidine]	43.3	79	49.8	90	34.6	63
COc1cc(Cc2cnc(NC(c3ccccc3O)S(=O)(=O)O)nc2N)cc(OC)c1OC (centres unmarked) [Example 25c, N2 (2-HYDROXY) PHENYL METHANE SULFONIC ACID OF 5-(3,4,5-TRIMETHOXY BENZYL) 2,4-DIAMINO PYRIMIDINE]	57	116	–	–	–	–
